Assay results reported in US20190202877A1, “DERMASEPTIN-TYPE AND PISCIDIN-TYPE ANTIMICROBIAL PEPTIDES” (THE REGENTS OF THE UNIVERSITY OF COLORADO, a body corporate, priority 2014, published 2019).
Converted amounts (≈) assume the structure as drawn. Like-named read-outs stand apart in the source and are kept apart here.

How the values were obtained:
[1] = test system: methicillin resistant Staph. aureus (MRSA); assay type: cell-based, Staphylococcus aureus; conditions: for MIC: MH medium, 37° C., 24 h; for MIC GM, MRSA: geometric mean of MIC from 8 different isolates of MRSA
Experimental: (§1) MICs were determined by a standard microtiter dilution method in Mueller Hinton (MH) medium. Briefly, cells were grown overnight at 37° C. in MH broth and were diluted in the same medium. Serial dilutions of the peptides were added to the microtiter plates in a volume of 50 μl, followed by the addition of 50 μl of bacteria to give a final inoculum of 5×10^5 colony-forming units (CFU)/mL. The plates were incubated at 37° C. for 24 h, and the MICs were determined as the lowest peptide concentration that inhibited growth.
(§2) Various peptides of the invention were tested for antimicrobial activity as described in Example 1. The antimicrobial activity of these peptides was similarly tested against Gram-positive organisms, including Staphylococcus aureus.

[2] = test system: methicillin sensitive Staph. aureus (MSSA); assay type: cell-based, Staphylococcus aureus; conditions: for MIC: MH medium, 37° C., 24 h; for MIC GM, MSSA: geometric mean of MIC from 12 different isolates of MSSA
Experimental: as §1, §2

human red blood cells = conditions: for Fold improvement in HC50: compared to D-Piscidin 1 or D-Dermaseptin S4, 18 hours
Experimental: Peptide samples (concentrations determined by amino acid analysis) were added to 1% human erythrocytes in phosphate-buffered saline (100 mM NaCl, 80 mM Na2HPO4, 20 mM NaH2PO4, pH 7.4) and the reaction mixtures were incubated at 37° C. for 18 h in microtiter plates. Two-fold serial dilutions of the peptide samples were carried out. This determination was made by withdrawing aliquots from the hemolysis assays and removing unlysed erythrocytes by centrifugation (800×g). Hemoglobin release was determined spectrophotometrically at 570 nm. The control for 100% hemolysis was a sample of erythrocytes treated with water or 0.1% Triton-X 100. The control for no release of hemoglobin was a sample of 1% erythrocytes without any peptide added. […] The hemolytic activity was determined as the peptide concentration that caused 50% hemolysis of erythrocytes after 18 h (HC50). HC50 as determined from a plot of percent lysis versus peptide concentration (μM). The inventors also determined the hemolytic activity after 1 hour at 37° C.

Structure (SMILES) | MIC ([1]; MRSA strain M21742 (nose)) | MIC ([1]; MRSA strain M21756 (nose)) | MIC ([1]; MRSA strain M22111 (ear)) | MIC ([1]; MRSA strain M22130) | MIC ([1]; MRSA strain M22224 (leg)) | MIC ([1]; MRSA strain M22354) | MIC ([1]; MRSA strain M22360 (labia)) | MIC ([1]; MRSA strain M22424 (arm)) | MIC GM, MRSA [1] | MIC ([2]; MSSA strain BL7429) | MIC ([2]; MSSA strain M21913) | MIC ([2]; MSSA strain M21935) | MIC ([2]; MSSA strain M21991) | MIC ([2]; MSSA strain M22075) | MIC ([2]; MSSA strain M22097) | MIC ([2]; MSSA strain M22111) | MIC ([2]; MSSA strain M22274) | MIC ([2]; MSSA strain M22287) | MIC ([2]; MSSA strain M22300) | Fold improvement in HC50 (human red blood cells) | also measured
CSCC[C@@H](NC(=O)[C@@H](Cc1c[nH]c2ccccc12)NC(=O)[C@@H](CC(C)C)NC(=O)[C@@H](C)N)C(=O)N[C@@H](C(=O)N[C@H](CC(C)C)C(=O)N[C@H](CC(C)C)C(=O)N[C@H](CCCCN)C(=O)N[C@H](CCCCN)C(=O)N[C@@H](C(=O)N[C@H](CC(C)C)C(=O)N[C@H](CCCCN)C(=O)N[C@H](C)C(=O)N[C@H](C)C(=O)N[C@H](C)C(=O)N[C@H](CCCCN)C(=O)N[C@H](C)C(=O)N[C@H](CC(C)C)C(=O)N[C@H](CC(N)=O)C(=O)N[C@H](C)C(=O)N[C@@H](C(=O)N[C@H](CC(C)C)C(=O)N[C@@H](C(=O)NCC(=O)N[C@H](C)C(=O)N[C@H](CC(N)=O)C(=O)N[C@H](C)C(N)=O)C(C)C)C(C)C)C(C)C)[C@H](C)O [D-Dermaseptin S4, reference compound] | 5.6 µM (≈ 15.6 µg/mL) | 2.8 µM (≈ 7.78 µg/mL) | 5.6 µM (≈ 15.6 µg/mL) | 5.6 µM (≈ 15.6 µg/mL) | 5.6 µM (≈ 15.6 µg/mL) | 5.6 µM (≈ 15.6 µg/mL) | 5.6 µM (≈ 15.6 µg/mL) | 11.3 µM (≈ 31.4 µg/mL) | 5.6 µM (≈ 15.6 µg/mL) | 2.8 µM (≈ 7.78 µg/mL) | 5.6 µM (≈ 15.6 µg/mL) | 5.6 µM (≈ 15.6 µg/mL) | 5.6 µM (≈ 15.6 µg/mL) | 2.8 µM (≈ 7.78 µg/mL) | 5.6 µM (≈ 15.6 µg/mL) | 5.6 µM (≈ 15.6 µg/mL) | 11.3 µM (≈ 31.4 µg/mL) | 5.6 µM (≈ 15.6 µg/mL) | 5.6 µM (≈ 15.6 µg/mL) | 1.0 fold | MIC ([2]; MSSA strain M22312): 11.3 µM (≈ 31.4 µg/mL); MIC ([2]; MSSA strain M22315): 11.3 µM (≈ 31.4 µg/mL); MIC GM, MSSA [2]: 6.0 µM (≈ 16.7 µg/mL)
CC[C@@H](C)[C@@H](NC(=O)[C@H]1CCCN1C(=O)[C@@H](CCCNC(=N)N)NC(=O)[C@@H](Cc1ccccc1)NC(=O)[C@H](NC(=O)[C@@H](Cc1c[nH]cn1)NC(=O)[C@@H](Cc1c[nH]cn1)NC(=O)[C@@H](Cc1ccccc1)NC(=O)[C@H](N)Cc1ccccc1)[C@H](C)CC)C(=O)N[C@@H](C(=O)N[C@H](Cc1c[nH]cn1)C(=O)N[C@@H](C(=O)NCC(=O)N[C@H](CCCCN)C(=O)N[C@@H](C(=O)N[C@@H](C(=O)N[C@H](Cc1c[nH]cn1)C(=O)N[C@H](CCCNC(=N)N)C(=O)N[C@H](CC(C)C)C(=O)N[C@@H](C(=O)N[C@@H](C(=O)NCC(N)=O)[C@H](C)O)C(C)C)[C@H](C)CC)[C@H](C)O)C(C)C)C(C)C [D-Piscidin 1 G8P] |  |  |  |  |  |  |  |  |  |  |  |  |  |  |  |  |  |  |  |  | fold increase in hemolytic activity from 1 to 18 hours (human red blood cells; HC50 1 hour vs 18 hours at 37° C.): 7 fold
CC[C@@H](C)[C@@H](NC(=O)CNC(=O)[C@@H](CCCNC(=N)N)NC(=O)[C@@H](Cc1ccccc1)NC(=O)[C@H](NC(=O)[C@@H](Cc1c[nH]cn1)NC(=O)[C@@H](Cc1c[nH]cn1)NC(=O)[C@@H](Cc1ccccc1)NC(=O)[C@H](N)Cc1ccccc1)[C@H](C)CC)C(=O)N[C@@H](C(=O)N[C@H](Cc1c[nH]cn1)C(=O)N[C@@H](C(=O)N[C@H](CCCCN)C(=O)N[C@H](CCCCN)C(=O)N[C@@H](C(=O)N[C@@H](C(=O)N[C@H](Cc1c[nH]cn1)C(=O)N[C@H](CCCNC(=N)N)C(=O)N[C@H](CC(C)C)C(=O)N[C@@H](C(=O)N[C@@H](C(=O)NCC(N)=O)[C@H](C)O)C(C)C)[C@H](C)CC)[C@H](C)O)C(C)C)C(C)C [D-Piscidin 1 G13K] |  |  |  |  |  |  |  |  |  |  |  |  |  |  |  |  |  |  |  | 3.9 fold | 
CC[C@@H](C)[C@@H](NC(=O)[C@@H](Cc1c[nH]cn1)NC(=O)[C@@H](Cc1c[nH]cn1)NC(=O)[C@@H](Cc1ccccc1)NC(=O)[C@H](N)Cc1ccccc1)C(=O)N[C@H](Cc1ccccc1)C(=O)N[C@H](CCCNC(=N)N)C(=O)NCC(=O)N[C@H](CCCCN)C(=O)N[C@@H](C(=O)N[C@H](Cc1c[nH]cn1)C(=O)N[C@@H](C(=O)NCC(=O)N[C@H](CCCCN)C(=O)N[C@@H](C(=O)N[C@@H](C(=O)N[C@H](Cc1c[nH]cn1)C(=O)N[C@H](CCCNC(=N)N)C(=O)N[C@H](CC(C)C)C(=O)N[C@@H](C(=O)N[C@@H](C(=O)NCC(N)=O)[C@H](C)O)C(C)C)[C@H](C)CC)[C@H](C)O)C(C)C)C(C)C [D-Piscidin 1 I9K] | 96.7 µM (≈ 250 µg/mL) | 387 µM (≈ 1000 µg/mL) | 96.7 µM (≈ 250 µg/mL) | 12.1 µM (≈ 31.3 µg/mL) | 96.7 µM (≈ 250 µg/mL) | 773 µM (≈ 2000 µg/mL) | 3.0 µM (≈ 7.76 µg/mL) | 773 µM (≈ 2000 µg/mL) | 96.7 µM (≈ 250 µg/mL) | 193 µM (≈ 499 µg/mL) | 193 µM (≈ 499 µg/mL) | 387 µM (≈ 1000 µg/mL) | 193 µM (≈ 499 µg/mL) | 387 µM (≈ 1000 µg/mL) | 193 µM (≈ 499 µg/mL) | 3.0 µM (≈ 7.76 µg/mL) | 773 µM (≈ 2000 µg/mL) | 773 µM (≈ 2000 µg/mL) | 773 µM (≈ 2000 µg/mL) | 54 fold | MIC ([2]; MSSA strain M22312): 773 µM (≈ 2000 µg/mL); MIC ([2]; MSSA strain M22315): 773 µM (≈ 2000 µg/mL); MIC GM, MSSA [2]: 273 µM (≈ 706 µg/mL); % hemolysis (human red blood cells; 1000 μg/mL (387 μM) for 1 hour): 32%; activity against human red blood cells (human red blood cells; 18 hours incubation): inactive
CC[C@@H](C)[C@@H](NC(=O)CNC(=O)[C@@H](CCCNC(=N)N)NC(=O)[C@@H](Cc1ccccc1)NC(=O)[C@H](NC(=O)[C@@H](Cc1c[nH]cn1)NC(=O)[C@@H](Cc1c[nH]cn1)NC(=O)[C@@H](Cc1ccccc1)NC(=O)[C@H](N)Cc1ccccc1)[C@H](C)CC)C(=O)N[C@@H](C(=O)N[C@H](Cc1c[nH]cn1)C(=O)N[C@H](CCCCN)C(=O)NCC(=O)N[C@H](CCCCN)C(=O)N[C@@H](C(=O)N[C@@H](C(=O)N[C@H](Cc1c[nH]cn1)C(=O)N[C@H](CCCNC(=N)N)C(=O)N[C@H](CC(C)C)C(=O)N[C@@H](C(=O)N[C@@H](C(=O)NCC(N)=O)[C@H](C)O)C(C)C)[C@H](C)CC)[C@H](C)O)C(C)C [D-Piscidin 1 V12K] | 385 µM (≈ 1000 µg/mL) | 385 µM (≈ 1000 µg/mL) | 96.1 µM (≈ 250 µg/mL) | 96.1 µM (≈ 250 µg/mL) | 96.1 µM (≈ 250 µg/mL) | 96.1 µM (≈ 250 µg/mL) | 3.0 µM (≈ 7.8 µg/mL) | 769 µM (≈ 2000 µg/mL) | 114 µM (≈ 296 µg/mL) | 385 µM (≈ 1000 µg/mL) | 769 µM (≈ 2000 µg/mL) | 192 µM (≈ 499 µg/mL) | 769 µM (≈ 2000 µg/mL) | 385 µM (≈ 1000 µg/mL) | 385 µM (≈ 1000 µg/mL) | 6.0 µM (≈ 15.6 µg/mL) | 769 µM (≈ 2000 µg/mL) | 192 µM (≈ 499 µg/mL) | 24.0 µM (≈ 62.4 µg/mL) | 19 fold | MIC ([2]; MSSA strain M22312): 769 µM (≈ 2000 µg/mL); MIC ([2]; MSSA strain M22315): 192 µM (≈ 499 µg/mL); MIC GM, MSSA [2]: 229 µM (≈ 595 µg/mL)
CC[C@@H](C)[C@@H](NC(=O)CNC(=O)[C@@H](CCCNC(=N)N)NC(=O)[C@@H](Cc1ccccc1)NC(=O)[C@H](NC(=O)[C@@H](Cc1c[nH]cn1)NC(=O)[C@@H](Cc1c[nH]cn1)NC(=O)[C@@H](Cc1ccccc1)NC(=O)[C@H](N)Cc1ccccc1)[C@H](C)CC)C(=O)N[C@@H](C(=O)N[C@H](Cc1c[nH]cn1)C(=O)N[C@@H](C(=O)NCC(=O)N[C@H](CCCCN)C(=O)N[C@@H](C(=O)N[C@@H](C(=O)N[C@H](Cc1c[nH]cn1)C(=O)N[C@H](CCCNC(=N)N)C(=O)N[C@H](CC(C)C)C(=O)N[C@@H](C(=O)N[C@@H](C(=O)NCC(N)=O)[C@H](C)O)C(C)C)[C@H](C)CC)[C@H](C)O)C(C)C)C(C)C [D-Piscidin 1, reference compound] | 3.0 µM (≈ 7.71 µg/mL) | 3.0 µM (≈ 7.71 µg/mL) | 3.0 µM (≈ 7.71 µg/mL) | 3.0 µM (≈ 7.71 µg/mL) | 3.0 µM (≈ 7.71 µg/mL) | 3.0 µM (≈ 7.71 µg/mL) | 1.5 µM (≈ 3.86 µg/mL) | 3.0 µM (≈ 7.71 µg/mL) | 2.8 µM (≈ 7.2 µg/mL) | 3.0 µM (≈ 7.71 µg/mL) | 3.0 µM (≈ 7.71 µg/mL) | 3.0 µM (≈ 7.71 µg/mL) | 6.1 µM (≈ 15.7 µg/mL) | 3.0 µM (≈ 7.71 µg/mL) | 6.1 µM (≈ 15.7 µg/mL) | 1.5 µM (≈ 3.86 µg/mL) | 3.0 µM (≈ 7.71 µg/mL) | 3.0 µM (≈ 7.71 µg/mL) | 3.0 µM (≈ 7.71 µg/mL) | 1.0 fold | MIC ([2]; MSSA strain M22312): 6.1 µM (≈ 15.7 µg/mL); MIC ([2]; MSSA strain M22315): 3.0 µM (≈ 7.71 µg/mL); MIC GM, MSSA [2]: 3.4 µM (≈ 8.74 µg/mL)
